From PubChem BioAssay AID1259411 (Chemical Carcinogenesis Research Information System (CCRIS), 2018) come the findings set out here.

The source made the active and inactive calls. No rule for the calls is given here.

The test system of this data set is rodent carcinogenicity bioassays, tumor incidence. In words: CCRIS carcinogenicity studies. Put shortly: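 NCI-built, expert-reviewed records of carcinogenicity and related test outcomes (mutagenicity, tumor promotion/inhibition) compiled from published and report sources, historical span 1985-2011, not updated.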

As to `C=CCN(CC=C)N=O`, the carcinogen call is, setting by setting: (Species: RAT, Strain/Sex: BDIX/FEMALE, Route: ORAL, Dose: 0, 20, 40, 80 MG/KG IN DRINKING WATER FOR DURATION OF STUDY (STUDY DURATION: LIFE TIME), Dose: 0, 20, 40, 80 MG/KG IN DRINKING WATER FOR DURATION OF STUDY (STUDY DURATION: LIFE TIME), Tumor Site: Type of Lesion: NASAL/PARANASAL CAVITY: TUMORS) “active; positive”; (Species: RAT, Strain/Sex: BDIX/MALE, Route: ORAL, Dose: 0, 20, 40, 80 MG/KG IN DRINKING WATER FOR DURATION OF STUDY (STUDY DURATION: LIFE TIME), Dose: 0, 20, 40, 80 MG/KG IN DRINKING WATER FOR DURATION OF STUDY (STUDY DURATION: LIFE TIME), Tumor Site: Type of Lesion: NASAL/PARANASAL CAVITY: TUMORS) “active; positive”.

Regarding `Cc1cc(O)c2c(c1)C(=O)c1cc(O)cc(O)c1C2=O`, the carcinogen call (Species: MOUSE, Strain/Sex: B6C3F1/FEMALE, Route: ORAL, Dose: 0, 312, 625, 1250 PPM IN DIET FOR 105 WK (STUDY DURATION: 105 WK), Dose: 0, 312, 625, 1250 PPM IN DIET FOR 105 WK (STUDY DURATION: 105 WK)) is “inactive; negative”; the carcinogen call (Species: MOUSE, Strain/Sex: B6C3F1/MALE, Route: ORAL, Dose: 0, 160, 312, 625 PPM IN DIET FOR 105 WK (STUDY DURATION: 105 WK), Dose: 0, 160, 312, 625 PPM IN DIET FOR 105 WK (STUDY DURATION: 105 WK), Tumor Site: Type of Lesion: KIDNEY: RENAL TUBULE ADENOMA, RENAL TUBULE CARCINOMA, RENAL TUBULE ADENOMA OR CARCINOMA) is “equivocal”; the carcinogen call (Species: RAT, Strain/Sex: F344/FEMALE, Route: ORAL, Dose: 0, 280, 830, 2500 PPM IN DIET FOR 105 WK (STUDY DURATION: 105 WK), Dose: 0, 280, 830, 2500 PPM IN DIET FOR 105 WK (STUDY DURATION: 105 WK), Tumor Site: Type of Lesion: ZYMBAL GLAND: CARCINOMA) is “equivocal”; the carcinogen call (Species: RAT, Strain/Sex: F344/MALE, Route: ORAL, Dose: 0, 280, 830, 2500 PPM IN DIET FOR 105 WK (STUDY DURATION: 105 WK), Dose: 0, 280, 830, 2500 PPM IN DIET FOR 105 WK (STUDY DURATION: 105 WK)) is “inactive; negative”.

Take `CC(O)CN(C)c1ccc(NN)nn1` (configuration not stated): the carcinogen call (Species: MOUSE, Strain/Sex: B6C3F1/MALE,FEMALE, Route: ORAL, Dose: 100, 200, 400 PPM IN DRINKING WATER FOR 80 WK, Dose: 100, 200, 400 PPM IN DRINKING WATER FOR 80 WK) is “inactive; negative”.

Consider `O=[N+]([O-])c1c2ccc3ccccc3c2cc2ccc3ccccc3c12`, for which, where the note is “Species: MOUSE, Strain/Sex: B6C3F1/MALE, Route: INTRAPERITONEAL, Dose: 0, 400 NMOL IN 35 µL DMSO (TOTAL DOSE) ADMINISTERED IN DOSES OF 1/7, 2/7, AND 4/7 OF THE TOTAL DOSE ON DAYS 1,8, AND 15, Tumor Site: Type of Lesion: LIVER :ADENOMA”, the carcinogen call was “active; positive”.

In the case of `CN1CCCC1=O`, the carcinogen call is, setting by setting: (Species: MOUSE, Strain/Sex: B6C3F1/FEMALE, Route: ORAL, Dose: 0, 600, 1200, 7200 PPM IN DIET FOR 18 MO (STUDY DURATION: 18 MO), Dose: 0, 600, 1200, 7200 PPM IN DIET FOR 18 MO (STUDY DURATION: 18 MO), Tumor Site: Type of Lesion: LIVER: HEPATOCELLULAR ADENOMA, HEPATOCELLULAR CARCINOMA) “active; positive”; (Species: MOUSE, Strain/Sex: B6C3F1/MALE, Route: ORAL, Dose: 0, 600, 1200, 7200 PPM IN DIET FOR 18 MO (STUDY DURATION: 18 MO), Dose: 0, 600, 1200, 7200 PPM IN DIET FOR 18 MO (STUDY DURATION: 18 MO), Tumor Site: Type of Lesion: LIVER: HEPATOCELLULAR ADENOMA, HEPATOCELLULAR CARCINOMA) “active; positive”; (Species: RAT, Strain/Sex: CD-1/FEMALE, Route: INHALATION, Dose: 0, 0.04, 0.4 MG/L 6 HR/D 5D/WK FOR 2 YR (STUDY DURATION: 2 YR), Dose: 0, 0.04, 0.4 MG/L 6 HR/D 5D/WK FOR 2 YR (STUDY DURATION: 2 YR)) “inactive; negative”; (Species: RAT, Strain/Sex: CD-1/FEMALE, Route: ORAL, Dose: 0, 1600, 5000, 15000 PPM IN DIET FOR 2 YR (STUDY DURATION: 2 YR), Dose: 0, 1600, 5000, 15000 PPM IN DIET FOR 2 YR (STUDY DURATION: 2 YR)) “inactive; negative”; (Species: RAT, Strain/Sex: CD-1/MALE, Route: INHALATION, Dose: 0, 0.04, 0.4 MG/L 6 HR/D 5D/WK FOR 2 YR (STUDY DURATION: 2 YR), Dose: 0, 0.04, 0.4 MG/L 6 HR/D 5D/WK FOR 2 YR (STUDY DURATION: 2 YR)) “inactive; negative”; (Species: RAT, Strain/Sex: CD-1/MALE, Route: ORAL, Dose: 0, 1600, 5000, 15000 PPM IN DIET FOR 2 YR (STUDY DURATION: 2 YR), Dose: 0, 1600, 5000, 15000 PPM IN DIET FOR 2 YR (STUDY DURATION: 2 YR)) “inactive; negative”.

On to `CNC(=O)Oc1ccc2c(c1)[C@]1(C)CCN(C)[C@@H]1N2C`, for which the carcinogen call (Species: RAT, Strain/Sex: SPRAGUE-DAWLEY/FEMALE (70/GROUP), Route: SUBCUTANEOUS (INGUINAL REGION), Dose: 0, 3.3 UG/KG BW, 2/D FOR 5 D (STUDY DURATION: 28 MO), Dose: 0, 3.3 UG/KG BW, 2/D FOR 5 D (STUDY DURATION: 28 MO), Tumor Site: Type of Lesion: MAMMARY GLAND: TUMOR) was “active; positive”.

For `CNC(=O)Oc1cccc(N=CN(C)C)c1`, the carcinogen call by setting is: (Species: Mouse, Strain/Sex: Crl:CD-1(ICR) BR/Female (50/Group), Route: Oral, Dose: 0, 10, 50, 500 ppm of 95.7% formetanate HCl in diet for 104 wk, study duration 104 wk, Dose: 0, 10, 50, 500 ppm of 95.7% formetanate HCl in diet for 104 wk, study duration 104 wk) “inactive; negative”; (Species: Mouse, Strain/Sex: Crl:CD-1(ICR) BR/Male (50/Group), Route: Oral, Dose: 0, 10, 50, 500 ppm of 95.7% formetanate HCl in diet for 104 wk, study duration 104 wk, Dose: 0, 10, 50, 500 ppm of 95.7% formetanate HCl in diet for 104 wk, study duration 104 wk) “inactive; negative”; (Species: Rat, Strain/Sex: Crl:COBS CD(SD)BR/Female (50/Group), Route: Oral, Dose: 0, 10, 50, 250 ppm of 95.1-96% formetanate HCl in diet for 104 wk, study duration 104 wk, Dose: 0, 10, 50, 250 ppm of 95.1-96% formetanate HCl in diet for 104 wk, study duration 104 wk) “inactive; negative”; (Species: Rat, Strain/Sex: Crl:COBS CD(SD)BR/Male (50/Group), Route: Oral, Dose: 0, 10, 50, 250 ppm of 95.1-96% formetanate HCl in diet for 104 wk, study duration 104 wk, Dose: 0, 10, 50, 250 ppm of 95.1-96% formetanate HCl in diet for 104 wk, study duration 104 wk) “inactive; negative”.

As to `Nc1ccc(N=Nc2ccccc2)cc1`, the carcinogen call is “inactive; negative” (Species: MOUSE, Strain/Sex: B6C3F1/FEMALE, Route: INTRAPERITONEAL, Dose: 0, 0.3 UMOL/G IN TRIOCTANOIN ONCE ON DAY 1 FOLLOWED BY 0.4 UMOL/G ONCE ON DAY 8, 15 AND 22 (STUDY DURATION: UP TO 10 MO)); “active; positive” (Species: MOUSE, Strain/Sex: B6C3F1/MALE, Route: INTRAPERITONEAL, Dose: 0, 0.017, 0.05, 0.15, 0.45 UMOL/G ONCE IN TRIOCTANOIN (STUDY DURATION: 10 MO), Dose: 0, 0.017, 0.05, 0.15, 0.45 UMOL/G ONCE IN TRIOCTANOIN (STUDY DURATION: 10 MO), Tumor Site: Type of Lesion: LIVER: HEPATOMA); “active; positive” (Species: MOUSE, Strain/Sex: B6C3F1/MALE, Route: INTRAPERITONEAL, Dose: 0, 0.3 UMOL/G IN TRIOCTANOIN ONCE ON DAY 1 FOLLOWED BY 0.4 UMOL/G ONCE ON DAY 8, 15 AND 22 (STUDY DURATION: UP TO 10 MO), Tumor Site: Type of Lesion: LIVER: HEPATOMA); “active; positive” (Species: MOUSE, Strain/Sex: C3H/MALE, Route: INTRAPERITONEAL, Dose: 0, 0.45 UMOL/G ONCE IN TRIOCTANOIN (STUDY DURATION: 11 MO), Tumor Site: Type of Lesion: LIVER: HEPATOMA); “active; positive” (Species: MOUSE, Strain/Sex: C57BL/MALE, Route: INTRAPERITONEAL, Dose: 0, 0.45 UMOL ONCE IN TRIOCTANOIN (STUDY DURATION: 11 MO), Tumor Site: Type of Lesion: LIVER: HEPATOMA); “active; positive” (Species: RAT, Route: DERMAL, Tumor Site: Type of Lesion: INTEGUMENTARY SYSTEM (SKIN)). Also, the carcinogen call (Species: RAT, Route: ORAL, Tumor Site: Type of Lesion: LIVER) is “active; positive” and the carcinogen call (Species: RAT, Strain/Sex: F344/MALE, Route: INTRAPERITONEAL, Dose: 0, 0.3 UMOL/G IN TRIOCTANOIN ONCE ON DAY 1 FOLLOWED BY 0.4 UMOL/G ONCE ON D 8, 15 AND 22 (STUDY DURATION: 24 MO)) was “inactive; negative”.
